Where two headings read alike, the source gives them in different places.
Key:
[1] = tested on: Molt-4 xenografts; experiment: Molt-4 T-ALL xenograft in SCID mice; format: in vivo, mouse; conditions: 100 mg/kg PO twice daily (BID)
Description: In this study, the impact of Compounds 667 and 728 on tumor growth was tested using the Molt-4 T-ALL cancer xenograft model in SCID mice. MOLT-4 (CRL-1582) acute lymphoblastic leukemia cells were obtained from ATCC. These cells were grown in RPMI-1640 medium supplemented with 10% fetal bovine serum, 1% penicillin and streptomycin. Cells were sub-cultured by transferring floating cells to a new flask and trypsinizing adherent cells before subculturing at a ratio of 1:4. Molt-4 cells were harvested by centrifugation and counted using a hemocytometer. Cells were resuspended in PBS at a 5×10^7 cells per mL. Cells were placed on ice and mixed with an equal volume of Matrigel (BD Biosciences CB-40234). This mixture was kept on ice and injected into the left flank of mice in a volume of 0.2 mL, equivalent to 5×10^6 cells per mouse. Twenty-four (24) CB-17 SCID mice were inoculated subcutaneously in the left flank with the Molt-4 cells. Treatment was initiated when the tumors reached a mean volume of approximately 100 mm^3. Mice were allocated to three (3) groups of eight (8) mice. Mice were treated with vehicle, Compound 667 or Compound 728. Compounds 667 and 728 (100 mg/kg) were given orally (PO) twice daily (BID) beginning on Day 1. Animal weights and conditions were recorded daily, and tumors were measured on Mondays, Wednesdays and Fridays.

[2] = tested on: Z138 cells; experiment: MTT cell proliferation assay; format: cell-based; conditions: Homo sapiens, Z-138, Z138 cells, approximately 64-72 hours incubation
In short: (§1)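 Cytotoxicity was measured by MTT: OD490 of the solubilized formazan after roughly 4 h with MTT reagent, reported as mean percent inhibition relative to the negative control. Test compounds covered eight concentrations between 1 nM and 30 μM, added to 5,000–10,000 cells per well that had attached overnight.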

[3] = tested on: 3T3 cells; experiment: MTT cell proliferation assay; format: cell-based; conditions: Mus musculus, NIH3T3, approximately 64-72 hours incubation
In short: as §1

[4] = tested on: MS751 cells; experiment: MTT cell proliferation assay; format: cell-based; conditions: Homo sapiens, MS751, MS751 cells, approximately 64-72 hours incubation
In short: as §1

[5] = tested on: MRC-5 cells; experiment: MTT cell proliferation assay; format: cell-based; conditions: Homo sapiens, MRC5; MRC-5 cell line
Description: (§2) The MTT cell proliferation assay was used to study the cytotoxic properties of the compounds. The assay was performed according to the method described by Roche Molecular Biochemicals, with minor modifications. The assay is based on the cleavage of the tetrazolium salt, MTT, in the presence of an electron-coupling reagent. The water-insoluble formazan salt produced must be solubilized in an additional step. Cells grown in a 96-well tissue culture plate were incubated with the MTT solution for approximately 4 hours. After this incubation period, a water-insoluble formazan dye formed. After solubilization, the formazan dye was quantitated using a scanning multi-well spectrophotometer (ELISA reader). […] The cells were seeded at 5,000-10,000 cells in each well of 96-well plate in 100 μL of fresh culture medium and were allowed to attach overnight. The stock solutions of the compounds were diluted in 100 μL cell culture medium to obtain eight concentrations of each test compound, ranging from 1 nM to 30 μM. […] All optical densities were measured at 490 nm using a Vmax Kinetic Microplate Reader (Molecular Devices). In most cases, the assay was performed in duplicate and the results were presented as a mean percent inhibition to the negative control±SE. The following formula was used to calculate the percent of inhibition: Inhibition (%)=(1−(ODo/OD))×100.
(§3) The M24 cell line is derived from human melanoma cells. The U2OS cell line is a human osteosarcoma cell line expressing wild type p53 and Rb, but lacking p16. The MM1S cell line is a multiple myeloma cell line; the parent cell line, MM.1, was established from peripheral blood of a multiple myeloma patient who had become resistant to steroid-based therapy. The RPMI8226 cell line is derived from human B lymphocyte cells. NHDF cells are normal human dermal fibroblast cells. The MRC-5 cell line is derived from normal lung tissue of a fetus. The PC3 cell line is a human prostate cancer cell line. The DU-145 cell line is a human prostate cancer cell line. The MDA-MB-231 cell line is a human breast adenocarcinoma cell line. The MDA-MB-468 cell line is a human breast carcinoma cell line. HL-60 cells are human promyelocytic leukemia cells. Hep G2 cells are human hepatocellular carcinoma cells. HEP 3B cells are human hepatocellular carcinoma cells. The DLD-1 cell line is a colorectal adenocarcinoma cell line. The HCT-15 cell line is a human colon carcinoma cell line. The Colo-205 cell line is derived from a human adenocarcinoma of the colon. The LoVo cell line is a human colon adenocarcinoma cell line.

[6] = tested on: HEP 3B cells; experiment: MTT cell proliferation assay; format: cell-based; conditions: Homo sapiens, Hep3B; HEP 3B cell line; read-out: MTT Assay IC50, HEP 3B
Description: as §2, §3

[7] = tested on: Hep G2 cells; experiment: MTT cell proliferation assay; format: cell-based; conditions: Homo sapiens, HepG2; Hep G2 cell line; read-out: MTT Assay IC50, Hep G2
Description: as §2, §3

[8] = read-out: MTT Assay IC50, Z-138
[9] = read-out: MTT Assay IC50, MS-751

Structure (SMILES)	median tumor volume of Molt-4 xenografts (as a percentage of pre-dose tumor volume) [1]	IC50 [2, 8]	IC50 ([3]; read-out: MTT Assay IC50, 3T3)	IC50 [4, 9]	IC50 [5]	IC50 [6]	IC50 [7]	IC50 ([2]; read-out: MTT Assay IC50 Z-138)	IC50 ([3]; read-out: MTT Assay IC50 3T3)	IC50 ([4]; read-out: MTT Assay IC50 MS-751)
Nc1ccc(/C=C/C(=O)NCc2cc3cc(-c4ccc(C(=O)N5CCC(F)(F)CC5)cc4)cc(-c4ccc(F)cc4)c3o2)cn1 [Compound 728, (E)-3-(6-aminopyridin-3-yl)-N-((5-(4-(4,4-difluoropiperidine-1-carbonyl)phenyl)-7-(4-fluorophenyl)benzofuran-2-yl)methyl)acrylamide]	tumor growth inhibition	< 100 nM	100 to 5000 nM	< 100 nM						
Nc1ccc(/C=C/C(=O)NCc2cc3cc(-c4ccc(C(=O)N5CCOCC5)cc4)cc(Cl)c3o2)cn1 [Compound 502, (E)-3-(6-aminopyridin-3-yl)-N-((7-chloro-5-(4-(morpholine-4-carbonyl)phenyl)benzofuran-2-yl)methyl)acrylamide]					100 to 5000 nM	100 to 5000 nM	100 to 5000 nM	100 to 5000 nM	> 10000 nM	100 to 5000 nM
Nc1ccc(/C=C/C(=O)NCc2cc3cc(-c4ccc(C(=S)N5CCC(F)(F)CC5)cn4)cc(C(F)(F)F)c3o2)cn1 [Compound 667, (E)-3-(6-aminopyridin-3-yl)-N-((5-(5-(4,4-difluoropiperidine-1-carbonothioyl)pyridin-2-yl)-7-(trifluoromethyl)benzofuran-2-yl)methyl)acrylamide]	tumor growth inhibition	< 100 nM	> 10000 nM	< 100 nM						

Source: patent US12331040B2 (Karyopharm Therapeutics Inc., priority 2013, dated 2025)
